Results taken from patent US20080286216A1, “Surface Active Calcium Phosphates” (priority 2005, published 2008).

How the values were obtained:
[1] = system: human dental plaque microcosm biofilms; experiment: Tooth remineralisation: mineral deposition in dental plaque microcosm biofilms (Wong et al. method); type: cell-based; details: conclusion of Example 16
Description: This example investigated the tooth remineralisation properties of a complex according to the invention.
BMM: basal medium mucin models the nutrients present in saliva and was prepared following Wong et al, “Calcium phosphate deposition in human dental plaque microcosm biofilms induced by a ureolytic pH-rise procedure” Archives of Oral Biology 47 (2002) 779-790
The complex according to the invention was tested for its tooth remineralisation properties using the methodology described in Wong et al, “Calcium phosphate deposition in human dental plaque microcosm biofilms induced by a ureolytic pH-rise procedure” Archives of Oral Biology 47 (2002) 779-790.
Ca & P units: mmol/g protein, F units: μmol/g protein
Mineralisation regime: 14 days mineralisation; 3 doses of testing composition and 10% sucrose daily

[2] = system: people living in fluoridated areas; details: fluoride in drinking water; cited from earlier work

Stearamidopropyl Dimethylamine Glycerophosphate [Example 14]
tooth remineralisation properties [1]: has tooth remineralisation properties

F [fluoride]
aesthetically unacceptable changes to the appearance of teeth [2]: at least 12.5%
incidence of fluorosis [2]: ≤ 48%
